Tests used:
Assay type in all cases: cell-based, human
Astrocytoma CCF-STTG1 = assay: MTT assay, astrocytoma CCF-STTG1; conditions: 75 μM, 24 h, 37° C.
Protocol: (§1) Cytotoxicity effects were determined by MTT assay. […] Percent cytotoxicity is expressed as percentage of ceil death as compared to that of untreated control (0% cytotoxicity).
(§2) Approximately 2×10^4 cells per well were seeded into 96-well culture plates in 100 μl of RPMI 1640 medium. […] After 24 or 48 h treatment, 10 μl of 5 mg/ml MTT solution was added to the culture and incubated for 1 h at 37° C. The MTT reaction was terminated by the addition of 40 mM HCl in isopropanol. The MTT formazan formed was measured spectrophotometrically as described earlier (Mosmann, 1983). Untreated control cells were compared to treated cells for determining viability and therefore a measure of cytotoxicity.

Glioblastoma LN-229 = assay: MTT assay, glioblastoma LN-229; conditions: 24 h; for induction of cell death, LN-229: 75 μM, 37° C.
Protocol: as §1, §2

[1] = test system: MCF-7 breast cancer cells; assay: MCF-7 cell growth, cells counted in coulter counter
Protocol: The extent of cell growth inhibition was about 25% at 5 ug/ml of the 18-mer synthetic peptide as compared to untreated control.

Sequence | induction of cell death, CCF-STTG1 (Astrocytoma CCF-STTG1) | induction of cell death, LN-229 (Glioblastoma LN-229) | inhibition of MCF-7 cell growth vs untreated control ([1]; 5 ug/ml) | inhibition of MCF-7 cell growth vs untreated cells ([1]; 50 ug/ml, 48 to 72 hours) | dose dependence of cytotoxicity, glioblastoma LN-229 (Glioblastoma LN-229; 10, 25, 50, 75, 100 μM)
VRIKLSTPGVYGVYCE [Plc 70-84] | showed induction of cell death | showed induction of cell death | – | – | –
TFDVSKLKEGEQYMFFCT [Azu 96-113] | showed induction of cell death | showed induction of cell death | about 25% | 50% | increasing peptide concentrations led to increasing cytotoxicity

From US9096663B2, “Compositions and methods for treating conditions related to ephrin signaling with cupredoxins and mutants thereof” (The Board of Trustees of the University of Illinois, priority 2001, dated 2015)
